Literature values, collected in patent US20180243282A1, “Preparation and Use of Combination Enzyme and Gastrointestinal Modulator Delivery Systems” (Curemark, LLC, priority 2010, published 2018).

Tests used:
[1] = in vivo
[2] = in vivo; remark: listed apart in the source
[3] = acidic conditions in the stomach

excretion [1] | clearance by hemodialysis [2] | Compound | systemic absorption [1] | protective coating lasts [3] | systemic toxicity [1]
excreted in the feces |  | Bismuth | largely unabsorbed |  | 
 | cleared by hemodialysis | CN/C(=N/CCSCc1nc[nH]c1C)NC#N [cimetidine] |  |  | 
 |  | sucralfate | lack of systemic absorption | up to 6 hours | no systemic toxicity
